Patent EP4603105A1, “PHARMACEUTICAL COMPOSITION CONTAINING CYCLIC COMPOUND HAVING SELECTIVE KRAS INHIBITORY EFFECT AGAINST HRAS AND NRAS” (CHUGAI SEIYAKU KABUSHIKI KAISHA, priority 2022, dated 2024)
*1 amine or outer side, *2 acyl side, *3 side chain or, on linkers, in order; H or OH if unused. Where a SMILES comes first, the peptide text is derived from it. Bridges are numbered along the chain shown (N, C = ends). [ ]: non-standard residue; d: D form. The star is where a group is joined. hPhe(3,5-F2-4-CF3) = N[C@@H](CCc1cc(F)c(C(F)(F)F)c(F)c1)C(=O)O; hPhe(3-Cl-4-CF3) = N[C@@H](CCc1ccc(C(F)(F)F)c(Cl)c1)C(=O)O; NPrPhe(4-CF3) = CCCN[C@@H](Cc1ccc(C(F)(F)F)cc1)C(=O)O; X27 = COCCCN([C@@H](Cc1ccc(C)cc1)C(=O)[*:2])[*:1]; X14 = COCCN([C@@H](Cc1ccc(C)cc1)C(=O)[*:2])[*:1]; Pro(4-spirocPr) = O=C(O)[C@@H]1CC2(CC2)CN1; NMeGly(cPent) = CN[C@H](C(=O)O)C1CCCC1; Gly(cPent) = N[C@H](C(=O)O)C1CCCC1; αMeI = CC[C@H](C)[C@](C)(N)C(=O)O; NMeD = CN[C@@H](CC(=O)O)C(=O)O; NMeL = CN[C@@H](CC(C)C)C(=O)O; Morpholide = C1CN(*)CCO1; NMeA = CN[C@@H](C)C(=O)O; Ac5c = NC1(C(=O)O)CCCC1; Aze = O=C(O)[C@@H]1CCN1; NEtG = CCNCC(=O)O; Sar = CNCC(=O)O

Tests used:
[1] = target: GDP-bound NRAS wild-type protein (Homo sapiens, UniProt P01111); experiment: Binding to NRAS by surface plasmon resonance (SPR), KD and KD ratio to KRAS
Chain of GDP-bound NRAS wild-type protein (P01111 whole entry): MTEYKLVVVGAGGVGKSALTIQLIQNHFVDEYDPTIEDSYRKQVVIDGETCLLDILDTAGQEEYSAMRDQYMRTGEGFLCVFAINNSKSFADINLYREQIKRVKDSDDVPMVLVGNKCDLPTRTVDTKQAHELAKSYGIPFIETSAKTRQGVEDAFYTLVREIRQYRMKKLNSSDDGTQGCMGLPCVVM
Procedure, shortened: (§1)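 Running buffer contained 10 µM GDP and 10 mM MgCl2 to keep RAS in the GDP state, with 4% DMSO at pH 7.4. Compounds were flowed at 100 µL/min in 75 s steps of rising concentration over captured biotin-Avi RAS at 30°C. Sensorgrams were fitted 1:1 for KD.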

[2] = tested on: human lung cancer strain NCI-H441; format: cell-based
Procedure, shortened: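 Step one: dispense the test compound in serial DMSO dilutions. Step three: add the reagent and measure […].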

HRAS wild-type protein = HRAS wild-type protein (Homo sapiens, UniProt P01112); experiment: Binding to HRAS by surface plasmon resonance (SPR), KD and KD ratio to KRAS
Chain of HRAS wild-type protein (P01112 whole entry): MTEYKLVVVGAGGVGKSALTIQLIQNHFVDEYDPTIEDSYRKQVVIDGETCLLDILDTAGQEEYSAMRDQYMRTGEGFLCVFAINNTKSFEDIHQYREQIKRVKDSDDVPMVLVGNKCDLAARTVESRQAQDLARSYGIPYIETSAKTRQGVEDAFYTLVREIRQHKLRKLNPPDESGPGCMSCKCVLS
Procedure, shortened: as §1

[3] = ratio of KD for GDP-bound NRAS wild-type protein to KD for KRAS
[4] = ratio of KD for HRAS wild-type protein to KD for KRAS
[5] = ratio of the KD value with respect to GDP-bound NRAS wild-type protein to the KD value with respect to KRAS
[6] = ratio of the KD value with respect to HRAS wild-type protein to the KD value with respect to KRAS

| Compound | IC50 [2] | NRAS /KRAS [1, 3] | HRAS /KRAS (HRAS wild-type protein; [4]) | NRAS /KRAS [1, 5] | HRAS /KRAS (HRAS wild-type protein; [6]) |
| --- | --- | --- | --- | --- | --- |
| CCCN1C(=O)CN(C)C(=O)CN(CC)C(=O)[C@H](C2CCCC2)NC(=O)[C@H](CC(C)C)N(C)C(=O)C[C@@H](C(=O)N2CCOCC2)N(C)C(=O)[C@H](C2CCCC2)N(C)C(=O)C2(CCCC2)NC(=O)[C@@H]2CCCN2C(=O)[C@H](CCc2ccc(C(F)(F)F)c(Cl)c2)NC(=O)CN(C)C(=O)[C@@H]1Cc1ccc(C(F)(F)F)cc1 [PP0293] ([NMeL][Gly(cPent)][NEtG][Sar][NPrPhe(4-CF3)][Sar][hPhe(3-Cl-4-CF3)]P[Ac5c][NMeGly(cPent)][NMeD]-Morpholide; lactam N-11) | 37.6 nM | B (a compound having 3 or more and less than 10 is denoted as B) | C (A compound having a KD ratio of 0.1 or more and less than 3 is denoted as C) |  |  |
| CCCN1C(=O)CN(C)C(=O)CN(C)C(=O)[C@H]([C@@H](C)CC)NC(=O)[C@H](CC(C)C)N(C)C(=O)C[C@@H](C(=O)N2CCOCC2)N(C)C(=O)[C@H](C2CCCC2)N(C)C(=O)[C@](C)([C@@H](C)CC)NC(=O)[C@@H]2CCCN2C(=O)[C@H](CCc2cc(F)c(C(F)(F)F)c(F)c2)NC(=O)CN(C)C(=O)[C@@H]1Cc1ccc(C(F)(F)F)cc1 [PP0757] ([NMeL]I[Sar][Sar][NPrPhe(4-CF3)][Sar][hPhe(3,5-F2-4-CF3)]P[αMeI][NMeGly(cPent)][NMeD]-Morpholide; lactam N-11) | 480 nM |  |  | B (a compound having 3 or more and less than 10 is denoted as B) | C (A compound having a KD ratio of 0.1 or more and less than 3 is denoted as C) |
| CCCN1C(=O)[C@H](C2CCCC2)N(C)C(=O)C2(CCC2)NC(=O)[C@@H]2C[C@@H](OCC)CN2C(=O)[C@H](CCc2cc(F)c(C(F)(F)F)c(F)c2)NC(=O)CN(C)C(=O)[C@H](Cc2ccc(C(F)(F)F)cc2)N2CCCC[C@@H](C2=O)N(C)C(=O)CN(C)C(=O)[C@H]([C@@H](C)CC)NC(=O)[C@H](CC(C)C)N(C)C(=O)C[C@H]1C(=O)N1CCOCC1 [PP0649] | 30.2 nM |  |  | C (A compound having a KD ratio of 0.1 or more and less than 3 is denoted as C) | B (a compound having 3 or more and less than 10 is denoted as B) |
| CCC[C@H]1C(=O)N[C@@H]([C@@H](C)CC)C(=O)N(C2CC2)CC(=O)N(C)[C@H]2C/C=C\CCN(C2=O)[C@@H](Cc2ccc(C)cc2)C(=O)N(C)CC(=O)N[C@@H](CCc2cc(C)c(C(F)F)c(F)c2)C(=O)N2C[C@H](OCC)C[C@H]2C(=O)NC2(CC(C)(C)C2)C(=O)N(C)[C@@H](C2CCCC2)C(=O)N(C)[C@H](C(=O)N(C)C)CC(=O)N1C [PP2874] | 44 nM | A (a compound having 10 or more and less than 20 is denoted as A) | A (a compound having 10 or more and less than 20 is denoted as A) |  |  |

The next compounds have a lower IC50 [2] than those just listed; values first:

| IC50 [2] | Compound | NRAS /KRAS [1, 3] | HRAS /KRAS (HRAS wild-type protein; [4]) | NRAS /KRAS [1, 5] | HRAS /KRAS (HRAS wild-type protein; [6]) |
| --- | --- | --- | --- | --- | --- |
| 3.7 nM | CC[C@H](C)[C@@H]1NC(=O)[C@H](CC(C)C)N(C)C(=O)C[C@@H](C(=O)N2CCOCC2)N(C)C(=O)[C@H](C2CCCC2)N(C)C(=O)C2(CCCC2)NC(=O)[C@@H]2CCCN2C(=O)[C@H](CCc2ccc(C(F)(F)F)c(Cl)c2)NC(=O)CN(C)C(=O)[C@H](Cc2ccc(C)cc2)N(CCOC)C(=O)[C@@H]2CCN2C(=O)[C@H](C)N(C)C1=O [PP0092] ([NMeL]I[NMeA][Aze][X14][Sar][hPhe(3-Cl-4-CF3)]P[Ac5c][NMeGly(cPent)][NMeD]-Morpholide; lactam N-11) | C (A compound having a KD ratio of 0.1 or more and less than 3 is denoted as C) | C (A compound having a KD ratio of 0.1 or more and less than 3 is denoted as C) |  |  |
| 4.6 nM | CCCN1C(=O)CN(C)C(=O)CN(C)C(=O)[C@H]([C@@H](C)CC)NC(=O)[C@H](CC(C)C)N(C)C(=O)C[C@@H](C(=O)N2CCOCC2)N(C)C(=O)[C@H](C2CCCC2)N(C)C(=O)C2(CCCC2)NC(=O)[C@@H]2CC3(CC3)CN2C(=O)[C@H](CCc2ccc(C(F)(F)F)c(Cl)c2)NC(=O)CN(C)C(=O)[C@@H]1Cc1ccc(C(F)(F)F)cc1 [PP0261] ([NMeL]I[Sar][Sar][NPrPhe(4-CF3)][Sar][hPhe(3-Cl-4-CF3)][Pro(4-spirocPr)][Ac5c][NMeGly(cPent)][NMeD]-Morpholide; lactam N-11) | B (a compound having 3 or more and less than 10 is denoted as B) | C (A compound having a KD ratio of 0.1 or more and less than 3 is denoted as C) |  |  |
| 8.3 nM | CC[C@H](C)[C@@H]1NC(=O)[C@H](CC(C)C)N(C)C(=O)C[C@@H](C(=O)N2CCOCC2)N(C)C(=O)[C@H](C2CCCC2)N(C)C(=O)C2(CCCC2)NC(=O)[C@@H]2CCCN2C(=O)[C@H](CCc2ccc(C(F)(F)F)c(Cl)c2)NC(=O)CN(C)C(=O)[C@H](Cc2ccc(C)cc2)N(CCCOC)C(=O)CN(C)C(=O)CN(C)C1=O [PP0105] ([NMeL]I[Sar][Sar][X27][Sar][hPhe(3-Cl-4-CF3)]P[Ac5c][NMeGly(cPent)][NMeD]-Morpholide; lactam N-11) | B (a compound having 3 or more and less than 10 is denoted as B) | C (A compound having a KD ratio of 0.1 or more and less than 3 is denoted as C) |  |  |
